Experimental data published in publication PMC10980656 (CNS Drugs, 2024).
Where a name gives a salt, the structure may show the parent alone. Read-outs that look alike come from different tables or passages of the source.

Legend:
healthy women and men = conditions: mild
clinical = conditions: both, human, in vivo; for AUC(0-t): AUC0–tz (geoMean); for Cmax: Cmax (geoMean), healthy subjects
[1] = cited from earlier work
[2] = repeated freeze/thaw cycles, short- (24 h) and long-term (30 day) storage; cited from earlier work
[3] = iv, 30 mg, plasma, single IV 30 mg fasudil over 30 min

Row | Structure (SMILES) | subjects with TEAE assessed as related to the IMP ("headache") (healthy women and men; IV treatment, one subject, recovered/resolved) [%] | treatment emergent adverse events (TEAEs), oral treatment (healthy women and men; oral fasudil, "fatigue", not related to the IMP) | Tmax (clinical; iv, 30 mg) [min] | AUC(0-t) (clinical; [3]) [ng·h/mL] | Cmax (clinical; [3]) [ng/mL] | Tmax (clinical; po, 30 mg) [min] | AUC0–tz LS mean ratio (oral/IV treatment) point estimate (90% CI) (both, human, in vivo) | AUC0–∞ LS mean ratio (oral/IV treatment) point estimate (90% CI) (both, human, in vivo) | hydroxyfasudil concentration after oral treatment compared with IV treatment (linear mixed-effect model of the full analysis set) [%] | Cmax LS mean ratio (oral/IV treatment) point estimate (90% CI) (linear mixed-effects model) | half-life (clinical; iv) [min] | AUC(0-inf) (clinical; iv, 30 mg, AUC0–∞ (geoMean), plasma, single IV 30 mg fasudil over 30 min) [ng·h/mL] | half-life (clinical; po, 30 mg) [min] | serum half-life ([1]; after IV administration of fasudil) [min] | exposure (AUC) ([1]; after IV applications (30 mg fasudil over 30 min)) [ng·h/mL] | exposure (AUC) ([1]; investigational oral solution, 40 mg fasudil hydrochloride) [ng·h/mL] | sample stability (human plasma) [2] [%]
1 | O=S(=O)(c1cccc2cnccc12)N1CCCNCC1 [fasudil, fasudil hydrochloride, reference compound] | 7.1 | One TEAE | 22.5 | 55.6 | 101 | 15 |  |  |  |  |  |  |  |  |  |  | 
2 | O=S(=O)(c1cccc2c(O)nccc12)N1CCCNCC1 [hydroxyfasudil] |  |  | 45 | 439 | 108 | 30 | 64.52 (60.32–69.01) % | 64.76 (60.11–69.78) % | 65 | 102.97 (89.53–118.43) % | 342 | 460 | 332 | 100 to 200 | 400 to 555 | 300 | > 94
